This passage reports logP results from the SangsterLogP compilation.

This data set in a line: method code SF-TN, from DOI: 10.1007/bf00773207.
For the compound `Cc1cc(C)cc(Nc2cc(Cl)ccc2C(=O)O)c1`, the logP – broadly, the decadic logarithm of the partition coefficient of the neutral form, usually between octanol and water – was determined as 5.48.

Turning to `O=C(O)c1ccc(Cl)cc1Nc1cccc(Br)c1`, the logP turned out to be 5.16.

Compound `COc1ccccc1Nc1ccccc1C(=O)O` yielded a logP of 3.6.

Turning to `Cc1ccccc1Nc1cc(Cl)ccc1C(=O)O`, the logP is 4.73.

`O=C(O)c1ccc(Cl)cc1Nc1ccc(Cl)cc1` had a logP of 4.97.

In turn, `O=C(O)c1ccc(Cl)cc1Nc1ccccc1` returned a logP of 4.25.

In turn, `O=C(O)c1ccc(Cl)cc1Nc1ccc([N+](=O)[O-])cc1` came in with a logP of 4.04.

With `Cc1ccc(Nc2cc(Cl)ccc2C(=O)O)cc1C`, the logP was 5.43.

In turn, `O=C(O)c1ccc(Cl)cc1Nc1ccccc1Cl` registered a logP of 4.67.

Turning to `COc1ccc(Nc2cc(Cl)ccc2C(=O)O)cc1`, the logP amounted to 4.41.

Regarding `O=C(O)c1ccccc1Nc1ccccc1`, the logP is 3.52.

The compound `O=C(O)c1ccccc1Nc1ccccc1Cl` came in with a logP of 3.94.

`Cc1ccc(Nc2ccccc2C(=O)O)cc1` gave a logP of 4.09.

The compound `O=C(O)c1ccccc1Nc1ccc(Cl)cc1` gave a logP of 4.24.

Regarding `O=C(O)c1ccc(Cl)cc1Nc1cccc(Cl)c1`, the logP was found to be 5.

As to `COc1ccccc1Nc1cc(Cl)ccc1C(=O)O`, the logP is 4.32.

Turning to `COc1ccc(Nc2ccccc2C(=O)O)cc1`, the logP was 3.68.

Take `O=C(O)c1ccc(Cl)cc1Nc1cccc([N+](=O)[O-])c1`: the logP was found to be 4.05.

On to `Cc1ccc(Nc2cc(Cl)ccc2C(=O)O)cc1`, for which the logP stood at 4.81.

`O=C(O)c1ccc(Cl)cc1Nc1ccc(I)cc1` displayed a logP of 5.37.

Compound `Cc1ccccc1Nc1ccccc1C(=O)O` had a logP of 4.01.
